{"source": "patent US20250186401A1", "about": "“COMBINATORIAL ACTIVATION OF GABA(B) AND A2 ADRENERGIC RECEPTORS PROVIDES RELIEF FROM STRESS INDUCED DEPRESSION” (University of Florida Research Foundation, Incorporated, priority 2022, published 2025)", "system": "mice subjected to UCMS", "test": "TST in unpredictable chronic mild stress (UCMS) model", "type": "in vivo", "settings": "UCMS mice (4 weeks); injection day 29, TST 30 min after; vs vehicle; FIG. 3B", "method": "TST was performed 30 min after injection time. To perform the TST, the tails of the mice were wrapped with tape that covered approximately 4/5 of the tail length and then fixed upside down on a hook. The immobility time of each mouse was recorded and tracked over a 6 min period. The Porsolt FST was conducted using vertical clear glass cylinder (10 cm in diameter, 25 cm in height) filled with water (25° C.). The mice spent 6 min in the water and immobility was scored from 2 to 6 min. A mouse was regarded as immobile when floating motionless or making only those movements necessary to keep its head above the water.\nThis study investigated the effects of ClonBac in a mouse model of unpredictable chronic mild stress (0). For the UCMS paradigm, mice were housed in individual cages and were subjected to 4 weeks of stressors, with two stressors applied within a 24 hr period. Stressors were applied pseudo-randomly and included: intermittent bell (10 db, 1/10 s), continuous white noise for 4 h, rat odor, 45° cage tilt for 4 h, 30 minute cage shaking, soiled bedding for 8 hr, paired housing with a new partner for 2 h, overnight illumination, removal of nesting material for 12 hr, placement of a novel object in home cage for 3 h, and physical restraint for 1 h. Stressors continued to be applied during the behavioral testing phase. […]", "data": [{"smiles": "NCC(CC(=O)O)c1ccc(Cl)cc1", "note": "(stereo not drawn) [baclofen, β-(4-chlorophenyl)-γ-aminobutyric acid]", "values": [{"measurement": "TST immobility time", "result": "significantly attenuated immobility TST time"}]}]}
